pIC50: −log10 of the molar value.
The molecules below were run on RAW264.7 (assay: Antiinflammatory activity in mouse RAW264.7 cells assessed as inhibition of LPS-stimulated nitric oxide production treated for 2 hrs before LPS challenge measured after 24 hrs […]).
Format: functional, cell-based

With COC(=O)c1cc2c([nH]c3ccccc32)c(C(C)=O)n1 as the molecule, how does the pIC50 read?
The pIC50 was 4.75.

How did the pIC50 turn out when COC(=O)/C=C/NC(=O)c1cc2c([nH]c3ccccc32)c(C(C)=O)n1 [DICHOTOMIDE III] was run?
Its pIC50 is 4.76.

With C/C=C(/C)C(=O)O[C@@H](C)c1nc(C(=O)N/C=C/C(=O)OC)cc2c1[nH]c1ccccc12 [DICHOTOMIDE X] as the molecule, how does the pIC50 read?
Its pIC50 is 4.95.

With N=C(N)NN [PIMAGEDINE] as the molecule, how does the pIC50 read?
Its pIC50 is 5.34.

CC(=O)c1nc(C(N)=O)cc2c1[nH]c1ccccc12 [STELLARINES A] was tested. Which pIC50 did it give?
Its pIC50 is 4.71.

COC(=O)/C=C\NC(=O)c1cc2c([nH]c3ccccc32)c(C(C)=O)n1 [STELLARINES B] was tested. Which pIC50 did it give?
The pIC50 was 4.73.
